In general, EC50 refers to the concentration at which the effect is half-maximal.

Series [1] concerns Daudi cell line (AID positive). The experiment in a line: Primary screening cell killing assay (Cell-Titer Glo, Day 7). Format: cell-based. The conditions noted are these: Homo sapiens, 168 h; Daudi cells (AID positive), cell death on Day 7; read-out: AID+ EC50. On the procedure:
(§1) Primary screening was a phenotypic screen that utilized the synthetic lethal interaction between AID and RAD51 to identify compounds that were both potent and on target. AID expressing cells are dependent upon RAD51 for survival; inhibiting RAD51 in AID positive cells results in a cytotoxic effect.
(§2) The first step was to set up a cell killing assay in the Daudi cell line (AID positive). A 96 well u-bottom plate was prepared by writing the experiment number, plate number, date and initials in the top right corner of the plate lid. With a sterile 300 ml reservoir, and 25 ml serological pipette, evaporation buffer media was pipetted into reservoir in 25 ml increments. Using the liquid handler, 150 ul of evaporation buffer media was pipetted from reservoir into rows A and H, and Columns 1 and 12 of the 96 well u-bottom plate. Cell cultures were counted to obtain the density of cells per ml, and the culture viability. The cell density information was used to obtain 1,000,000 cells from culture using a 5 mL serological pipette into an epi tube. The cell density information from the culture was used to calculate the number of cells and volume of media needed for the assay to seed 1250 cells in 130 ul of media per available culture well in the 96 well u-bottom plate. Rows B through F were used for cells (50 wells in total), with row G left for an empty media control. The calculation was overestimated by 10 mL to account for the dead volume in the 300 ml reservoir. Once the media volume was calculated, the appropriate volume of media was pipetted in 25 mL increments into the 250 mL bottle using a 25 mL serological pipette. The 250 ml bottle was capped tightly, and placed into a 37° C. water bath for 2 minutes. While the culture media was warming, 10 mL of fresh media was pipetted from the 500 mL culture media bottle into a sterile 25 mL reservoir. Using the Eppendorf multichannel pipette, 130 ul of media was piptted from the 25 mL reservoir into row G of the 96 well u-bottom plate. Once the 250 mL bottle of media was warmed, the volume of culture needed was pipetted into the bottle, and mixed gently with a 25 mL serological pipette as to not create bubbles, and then the contents of the bottle were pipetted into a new 300 mL reservoir. Using the liquid handler, 130 ul of culture was pipetted from the 300 mL reservoir into rows B through F of the 96 well u-bottom plate. Once the culture was added, the plate was placed into a 37° C. incubator until the compound master plate was prepared for use.
(§3) Two 96 well u-bottom plates were prepared by writing the master plate name in the upper right corner of the plate lid. Labeling one DMSO master and the other Media Master. The compounds of interest were obtained from the laboratory freezer, and placed into a 25 well storage box with a lid, and set the box aside. The compounds were vortexed after thawing but before use. Using an automatic multichannel pipette, 20 ul of 100% DMSO was pipetted into wells B3-B11 through G3-G11 of the DMSO master plate. For each compound on the master plate, 50 ul of the compound were pipetted in the appropriate well of row 2 (reference plate map to determine appropriate well). A serial dilution was prepared beginning by aspirating 20 ul from row 2 and mixing with row 3, repeating until row 11 was reached. Using the liquid handler, 194 ul of Daudi media was dispensed into wells B2-B11 through G2-G11 of the Media master plate. Using the liquid handler, 6 ul from the DMSO master plate was aspirated and dispensed into the media master plate, mixing 100 ul twice.
Compounds from master plate were then added to the culture plate. The culture plates were removed from the incubator, and set inside the biosafety cabinet. Using a liquid handler, 20 ul from wells B2 to B11 through G2 to G11 of master plate were aspirated, and dispensed into wells B2 to B11 through G2 to G11 of culture plate. This set was continued with each culture plate. […]

The test system of series [2] is WI-38 cells (AID negative). The experiment in a line: Primary screening cell killing assay repeated in AID negative cells. Format: cell-based, Human. Conditions: Homo sapiens; WI-38 cells (AID negative); read-out: AID− EC50. The procedure:
as §1
Percent cell death and EC50 values were calculated by comparing the cell viability of the compound treated wells to the non-treated wells. Normalized RLU values were obtained by subtracting the media well values from each of the wells in the same column, and then dividing that value by the DMSO treated cells values. The percent kill was then calculated by subtracting the normalized RLU value from 1 and multiplying by 100. The average normalized percent kill value and standard error of the mean was then calculated. The kill values were then inputted into Prism with the corresponding standard errors. In Prism a non-linear regression line was plotted with the data points using a semi-log scale, and the EC50 value was calculated.
The activity of the claimed compounds was measured in a variety of cell lines with different expression levels of activation induced cytidine deaminase (AICDA). The potency assay was repeated in all of the listed cell lines and the EC50 values recorded.

Series [3] in a line: Human liver microsome stability. Format: in vitro ADME. Conditions: percentage of hepatic blood flow. The procedure: The stability of the claimed compounds was determined in the presences of human liver microsomes. The compounds were incubated with the microsomes at 37° C. for 45 minutes. Samples were analyzed using LC-MS/MS. Data analysis included half-life, clearance rate, and the percentage of hepatic blood flow (% QH) for each of the compounds in the different species.

The subject of series [4] is ARPE19/HPV16 (HPV Immortalized RPE). The experiment in a line: Cell line screen (potency assay). It counts as cell-based. The conditions noted are these: ARPE-19, AICDA expression Negative. On the procedure:
as §2, §3
Compounds from master plate were then added to the culture plate. The culture plates were removed from the incubator, and set inside the biosafety cabinet. Using a liquid handler, 20 ul from wells B2 to B11 through G2 to G11 of master plate were aspirated, and dispensed into wells B2 to B11 through G2 to G11 of culture plate. This set was continued with each culture plate. Once the culture plates acquired their 20 ul of compound dilutions, they were placed back into the incubator, until their reads on Day 7 of experiment. Cell death was measured on Day 7 of the experiment using Cell-Titer Glo and a Promega Plate reader. […]

Series [5] can be described thus: Pharmacokinetic (PK) study. It counts as in vivo, Rat. Conditions: po @ 80 mg/kg (30% PEG400, 10% Vitamin E TPGS in water). The procedure: PK studies in mice were used to determine the fate of the compounds in a whole organism. Rats were treated with the compounds either orally of via IV at the indicated doses and followed for up to 24 hours. Plasma samples were taken at different time points and analyzed by LC-MS.

The nature of series [6]: Bi-directional Caco-2 permeability. Conditions: human; for Papp A→B / Papp B→A: Caco-2, 37 C, up to 90 minutes; for Papp A→B: apical to basolateral, read-out: AB Papp (cm/sec × 10^6); for Papp B→A: basolateral to apical, read-out: BA Papp (cm/sec × 10^6); for efflux ratio: Caco-2 efflux ratio, read-out: BA/AB Ratio. Format: in vitro ADME. On the procedure:
Bi-directional Caco-2 permeability was assayed. Caco-2 cells were seeded onto permeable polycarbonate supports and allowed to differentiate for about 3 weeks prior to being used in the assays. The cells were then exposed to the compounds from either the apical or basolateral sides and incubated at 37 C for up to 90 minutes under light agitation. Compound transport was then measured using LC/MS/MS analysis at 30, 60, and 90 minutes.
(Caco-2 monolayers are a common model of the intestinal barrier.)

[7] abbreviates: Caco-2, apical to basolateral, read-out: AB Recovery %.
[8] abbreviates: Caco-2, basolateral to apical, read-out: BA Recovery %.

Read-outs that look alike come from different tables or passages of the source.

Turning to `CC(C)(C)NS(=O)(=O)c1cc(NC(=O)OC2COC2)ccc1-c1cnc(C2CCC(NC(=O)OC3COC3)CC2)s1` (centres unmarked) [Compound 49], the EC50 in series [1] was at most 1000 nM; in series [2] it was over 1000 nM.
Take `CC(C)OC(=O)N[C@H]1CC[C@H](c2ncc(-c3ccc(NC(=O)NCc4ccccc4)cc3S(=O)(=O)NC(C)(C)C)s2)CC1` [Compound 66A]: in series [3], the “Human Liver Microsome Stability % QH” value amounted to 49.6%. Also, the concentration for a half-maximal effect (EC50) in series [4] was over 10000 nM. The “F (%) @ 5 mg/kg” value turned out to be 3.31% in series [5] (Rat Female) and 2.55% in series [5] (Rat Male).
Regarding `CC(C)OC(=O)NC1CCC(c2nc(F)c(-c3ccc(NC(=O)NCc4ccccc4)cc3S(=O)(=O)NC(C)(C)C)s2)CC1` (centres unmarked) [Compound 57], the EC50 in series [1] is at most 100 nM. Besides, in series [2], the EC50 is over 1000 nM. Besides, the recovery at 90 min in series [6] (setting [7]) was found to be 61.9%. Further, the recovery at 90 min in series [6] (setting [8]) was 86.8%. In addition, in series [6], the Papp A→B was found to be 1.3 ×10⁻⁶ cm/s, the Papp B→A amounted to 3.5 ×10⁻⁶ cm/s and the efflux ratio amounted to 2.7.
Consider `CC(C)OC(=O)NC1CCC(c2ncc(-c3ccc(NC(=O)N[C@H](C)c4ccccc4)cc3S(=O)(=O)NC(C)(C)C)s2)CC1` (some centres unmarked) [Compound 24], for which the figures for the EC50 in series [1] and in series [2] were at most 100 nM and over 1000 nM, respectively.
Take `CC(C)(C)NS(=O)(=O)c1cc(NC(=O)NCc2ccccc2)ccc1-c1cnc(C2CCC(NC(=O)OC3COC3)CC2)s1` (centres unmarked) [Compound 47]: in series [1], the EC50 is at most 100 nM. Also, the EC50 in series [2] is over 1000 nM. In series [6] (setting [7]), the recovery at 90 min is 65.3%. Besides, the recovery at 90 min in series [6] (setting [8]) came to 80.7%. For the same molecule, in series [6], the Papp A→B is 8.7 ×10⁻⁶ cm/s, the Papp B→A was 12.4 ×10⁻⁶ cm/s and the efflux ratio was found to be 1.4.
On to `CC(C)OC(=O)N[C@@H]1CCC(c2ncc(-c3ccc(NC(=O)NCc4ccccc4)cc3S(=O)(=O)NC(C)(C)C)s2)NC1` (some centres unmarked) [Compound 64], for which the concentration for a half-maximal effect (EC50) was at most 100 nM in series [1] and over 1000 nM in series [2]. The recovery at 90 min in series [6] (setting [7]) came out at 79.7%; in series [6] (setting [8]), 95.9%.
On to `CC(C)(C)NS(=O)(=O)c1cc(NC(=O)NCc2ccccc2)ccc1-c1cnc(C2CCC(NC(=O)OC(C)(C)C)CC2)s1` (centres unmarked) [Compound 10], for which the EC50 in series [1] is at most 100 nM. Moreover, the EC50 in series [2] was over 1000 nM. Further, in series [6] (setting [7]), the recovery at 90 min was 59.9%. For the same molecule, in series [6] (setting [8]), the recovery at 90 min was 87.2%. In series [6], the Papp A→B came to 1.2 ×10⁻⁶ cm/s, the Papp B→A came to 1.5 ×10⁻⁶ cm/s and the efflux ratio was 1.3.
As for `CC(C)OC(=O)NC1CCC(c2ncc(-c3ccc(NC(=O)O[C@H](C)c4ccccc4)cc3S(=O)(=O)NC(C)(C)C)s2)CC1` (some centres unmarked) [Compound 43], the results for the EC50 in series [1] and in series [2] were at most 1000 nM and over 1000 nM, respectively.
The matching figures for `CC(C)OC(=O)NC1CCC(c2ncc(-c3ccc(NC(=O)N[C@@H](C)c4ccccc4)cc3S(=O)(=O)NC(C)(C)C)s2)CC1` (some centres unmarked) [Compound 26]: at most 100 nM and over 1000 nM.
The matching figures for `CC(C)OC(=O)N[C@@H]1CCC(c2ncc(-c3ccc(NC(=O)NCc4ccccc4)cc3S(=O)(=O)NC(C)(C)C)s2)OC1` (mixture of isomers) [Compound 59]: at most 100 nM and over 1000 nM.
The matching figures for `CC(C)OC(=O)NC1CCC(c2ncc(-c3ccc(NC(=O)N[C@@H](C)c4ccccn4)cc3S(=O)(=O)NC(C)(C)C)s2)CC1` (some centres unmarked) [Compound 32]: at most 100 nM and over 1000 nM.
As for `CC(C)OC(=O)NC1CCC(c2ncc(-c3ccc(NC(=O)NCc4cccc(F)c4)cc3S(=O)(=O)NC(C)(C)C)s2)CC1` (centres unmarked) [Compound 27], the EC50 is at most 100 nM in series [1] and over 1000 nM in series [2]. Moreover, the recovery at 90 min is 92% in series [6] (setting [7]) and 107% in series [6] (setting [8]).
`CC(C)OC(=O)NC1CCC(c2ncc(-c3ccc(NC(=O)N[C@H](C)c4ccccn4)cc3S(=O)(=O)NC(C)(C)C)s2)CC1` (some centres unmarked) [Compound 30]: the EC50 in series [1] was at most 100 nM; in series [2], over 1000 nM. For the same molecule, the recovery at 90 min is 79.8% in series [6] (setting [7]) and 116% in series [6] (setting [8]).
In the case of `CC(C)OC(=O)NC1CCC(c2ncc(-c3ccc(NC(=O)NCc4ccccc4)cc3S(=O)(=O)NC(C)(C)CO)s2)CC1` (centres unmarked) [Compound 74], the EC50 in series [1] was at most 100 nM; in series [2], over 1000 nM.
Consider `CC(C)OC(=O)NC1CCC(c2ncc(-c3ccc(NC(=O)NCc4ccc(O)cc4)cc3S(=O)(=O)NC(C)(C)C)s2)CC1` (centres unmarked) [Compound 73], for which the values for the EC50 in series [1] and in series [2] were at most 100 nM and over 1000 nM, respectively.

Values taken from patent publication US11607404B2, “Combinations of RAD51 and PARP inhibitors” (Cyteir Therapeutics, Inc., priority 2019, dated 2023).
